In patent US6960607B2, “Naphthyl benzoxazoles and benzisoxazoles as estrogenic agents” (Wyeth, priority 2001, dated 2005) one finds IC50 and melting point data, which are given here for 3 compounds.

Where only a bound is given, the exact number is not on record here.

In data set [1] the target is T1, human ERβ (Homo sapiens, UniProt Q92731).
T1 construct: M214-Q530 of human ERβ; Flag (C); made in house; host or cells: E. coli BL21(DE3); clarified lysate used
The data set can be described thus: Radioligand binding competition with [3H]-17β-estradiol, ERβ. The settings on record: ligand binding domain expressed in E. coli lysate, read-out: ER-β IC50.

Data set [2] concerns the target T2, human ERα (Homo sapiens, UniProt P03372).
T2 construct: amino acids M250V595 of human ERα; His (N); made in house; host or cells: E. coli BL21(DE3); clarified lysate used
T2 sequence (P03372 250-595): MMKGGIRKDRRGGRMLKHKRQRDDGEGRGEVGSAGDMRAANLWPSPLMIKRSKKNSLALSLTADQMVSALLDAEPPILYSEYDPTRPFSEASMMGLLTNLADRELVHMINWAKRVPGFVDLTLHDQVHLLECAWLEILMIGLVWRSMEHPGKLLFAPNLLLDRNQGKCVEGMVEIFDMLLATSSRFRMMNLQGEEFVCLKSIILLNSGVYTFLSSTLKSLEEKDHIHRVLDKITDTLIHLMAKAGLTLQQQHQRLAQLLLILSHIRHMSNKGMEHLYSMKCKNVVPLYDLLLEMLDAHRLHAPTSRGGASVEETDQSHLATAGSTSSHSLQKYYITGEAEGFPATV
The data set can be described thus: Radioligand binding competition with [3H]-17β-estradiol, ERα. The settings on record: ligand binding domain expressed in E. coli lysate, read-out: ER-α IC50.

T1 sequence (Q92731 214-530): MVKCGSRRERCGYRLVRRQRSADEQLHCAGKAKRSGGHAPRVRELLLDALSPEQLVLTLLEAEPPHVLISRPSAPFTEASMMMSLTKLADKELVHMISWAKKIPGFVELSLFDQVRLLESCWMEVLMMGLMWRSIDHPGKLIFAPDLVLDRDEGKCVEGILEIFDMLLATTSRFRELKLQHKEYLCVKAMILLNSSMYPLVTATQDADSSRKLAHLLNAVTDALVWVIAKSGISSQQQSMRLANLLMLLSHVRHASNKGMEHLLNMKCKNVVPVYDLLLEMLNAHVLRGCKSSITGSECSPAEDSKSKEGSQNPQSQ

A word on the IC50: it is the concentration at which inhibition is half-maximal. Broadly, the melting point is the temperature, or range, at which the solid turns liquid. In turn, `Oc1ccc2oc(-c3ccc(O)c4ccccc34)nc2c1` [Example 6, 2-(4-Hydroxy-1-naphthyl)-1,3-benzoxazol-5-ol] registered a melting point of 182 to 184 °C. Besides, the concentration for half-maximal inhibition (IC50) in data set [1] amounted to 230 nM. Also, the IC50 in data set [2] worked out at 581 nM.

As to `Cn1nc(-c2ccc3cc(O)ccc3c2)c2ccc(O)cc21` [Example 17, 3-(6-Hydroxy-2-naphthyl)-1-methyl-1H-indazol-6-ol], the melting point is 290 to 292 °C. Further, the IC50 in data set [1] came out at 1510 nM. The IC50 in data set [2] was over 5000 nM.

Compound `CCn1nc(-c2ccc3cc(O)ccc3c2)c2ccc(O)cc21` [Example 18, 1-Ethyl-3-(6-hydroxy-2-naphthyl)-1H-indazol-6-ol] had a melting point of 146 to 148 °C. Besides, in data set [1], the IC50 is over 5000 nM. Also, the IC50 in data set [2] was 3170 nM.
